Measured values as given in patent US4088778A, “Method for the treatment of hypertension” (priority 1975, dated 1978).

What was measured:
[1] = Hypotensive effect on rats of spontaneous hypertension, old SHR; format: in vivo, rats (9-month-old male SHR); conditions: 100 mg/kg TN orally once a day
Procedure: (B) Hypotensive Effect on Rats of Spontaneous Hypertension:
Experiments were conducted by using two classes of rats of spontaneous hypertension (hereinafter referred to as "SHR"; provided by Nippon Rat K.K.) differing in the age. In the first experiment, 9-month-old chronic […] SHR (hereinafter referred to as "old SHR"), and in the second experiment, 7-week-old SHR in which hypertension was advancing (hereinafter referred to as "young SHR") was used.
(1) Experiment on Old SHR:
40 of 9-month-old male SHR (having a body weight of 360 to 450 g) were divided into 10 groups, each consisting of 4 rats, and each group was placed in a cage. One of the rats in each cage was used as the non-administered control animal, and 20 mg/Kg of TN, 100 mg/Kg of TN and 88 mg/Kg of TA (equimolar to 100 mg/Kg of TN) were administered to the remaining 3 rats, respectively. Each hypotensive agent was orally administered once a day over a period of 4 weeks in the form of a suspension in gum arabic. Gum arabic solution was administered to the Control (non-administered) group. Simultaneously with initiation of the administration, drinking water was exchanged from service water to a 1% aqueous solution of sodium chloride.

[2] = Clinical Experiment II: side effects; format: in vivo, human patients
Procedure: (§1) 75 patients of hypertension or arteriosclerosis having subjective symptoms were tested. Some of them suffered from complications such as ischemia heart disease and cerebral thrombosis. They are detailed in Table 11.
(§2) Two capsules were administered at one time, and the administration was conducted 3 times per day after eating. The duration of the continuous administration was 4 weeks. Combined use of drugs having the same functions as those of TN (vitamin E drugs, nicotinic acid, its derivatives and peripheral vasolidators) and minor tranquilizers was prohibited.

[3] = Hypotensive effect on experimental hypertension caused by DOCA; format: in vivo, male wistar rats
Procedure: (A) Hypotensive effect on experimental hypertension caused by administration of desoxycorticosterone (hereinafter referred to as "DOCA"):
Right kidneys were removed from 6-week-old male wistar rats, and a 1% aqueous solution of sodium chloride was given as drinking water and 12.5 mg/Kg of DOCA was intramuscularly injected every week. The change of the blood pressure was examined over a period of 6 weeks.
48 rats, each having one kidney removed, were divided into 6 groups, each consisting of 8 rats, and each group was placed in a cage. With respect to each group, a gum arabic solution was administered to 2 rats as non-administered control animals. 20 mg/Kg of TN was administered once a day to each of two rats among the remaining 6 rats, and 100 mg/Kg of TN was administered once a day to each of two rats among the remaining 4 rats. 88 mg/Kg of TA was administered once a day to each of the remaining two rats. TN and TA were administered in the form of a suspension in gum arabic. The blood pressure was measured by a Shimazu type systolic pressure continuous recording apparatus detecting pulse waves of rats taken in a thermostat fixed box maintained at 30° C.

[4] = Clinical Test I, double blind: blood pressure; format: in vivo, human patients; conditions: for Maximum Blood Pressure in Hypertensives, Average Value ± S.D. / Maximum Blood Pressure, Average Value±S.D.: in mmHg (unit assumed)
Procedure: 94 patients of hypertension or arteriosclerosis having subjective symptoms were tested, and some of them suffered from complications such as ischemia heart disease, hypertensive heart disease and encephalomalacia.
As the active drug, there were employed hard capsules, each containing 100 mg of TN.
Two capsules were orally administered at one time, and the administration was conducted three times a day after eating. The period of the administration was principally 4 weeks or 6 weeks. During this period, the administration was performed continuously. Combined administration of drugs having the same function as that of TN (vitamin E drugs, nicotinic acid, its derivatives and peripheral vasolidators) was prohibited. Drugs which had been continuously administered since before the start of the administration of TN were similarly administered according to the disease case and symptom, and change of the prescription during the test was avoided.
With respect to data collected separately in the TN group and the P group, the significant difference was examined according to the statistical method.

[5] = Subacute and chronic toxicities; format: in vivo; conditions: rats 100 to 1000 mg/Kg and beagles 100 mg/Kg daily, 3 or 6 months
Procedure: (B) Subacute and Chronic Toxicities:
TN and TA were separately administered to rats and beagles at daily doses of 100 to 1000 mg/Kg and 100 mg/Kg, respectively, continuously for 3 or 6 months.

[6] = Clinical Experiment II: liver function test; format: in vivo, human patients; design: GOT, Average Value / GPT, Average Value / LDH, Average Value / ALP, Average Value: unit not given here
Procedure: as §1, §2

[7] = Clinical Experiment II: kidney function test; format: in vivo, human patients; conditions: in mg/dL (unit assumed)
Procedure: as §1, §2
The kidney function test results are shown in Table 17, from which it will readily be understood that the variation of BUN values was within the normal region.

[8] = 2 weeks, N 34, TN 200 mg three times a day
[9] = 4 weeks, N 38, TN 200 mg three times a day
[10] = 6 weeks, N 20, TN 200 mg three times a day
[11] = before administration, N 43, all patients (Table 6)

SMILES: Cc1c(C)c2c(c(C)c1OC(=O)c1cccnc1)CCC(C)(CCCC(C)CCCC(C)CCCC(C)C)O2 (racemic) [TN, dl-α-tocopheryl nicotinate]
- difference of the blood pressure between control and administered group ([1]; 3rd week): about 30 mm Hg
- lowering of blood pressure on the average ([1]; after 1 week): 15 mm Hg
- side effect: constipation ([2]; among 41 patients): another patient complained of constipation
- side effect: light lack of appetite ([2]; among 41 patients): one
- side effects in other patients ([2]; among 41 patients): no side effect was observed
- side effects versus conventional hypotensive agents ([2]; conclusion of both clinical experiments): much more reduced in TN than in conventional hypotensive agents
- other various blood tests and the like: undesirable side effects ([2]; human, in vivo): None of results of other various blood tests and the like were suggestive of undesirable, side effects
- number of rats with blood pressure elevated to 170 mm Hg or higher ([3]; 20 mg/kg of TN once a day, among 10 rats (control 9 among 11)): 5 rats
- effect on increase of the blood pressure ([3]; 100 mg/kg of TN): especially conspicuous
- number of rats with blood pressure elevated to 170 mm Hg or higher ([3]; 100 mg/kg of TN once a day, among 12 rats (control 9 among 11)): 3 rats
- hypotensive effect, overall conclusion from pharmacological tests on animals ([3]; DOCA rats, old SHR, young SHR): have a hypotensive effect
- maximum blood pressure in patients of hypertension ([4]; 2, 4 or 6 weeks' administration): lowered by 2, 4 or 6 weeks' administration below the maximum blood pressure before the start of the administration
- Maximum Blood Pressure in Hypertensives, Average Value ± S.D. ([4]; 2 weeks, N 28, P < 0.05 vs before): 143.8 ± 21.0
- Minimum Blood Pressure, Average Value±S.D. [4, 8]: 82.4±11.4
- Maximum Blood Pressure, Average Value±S.D. [4, 8]: 139.7±21.1
- Maximum Blood Pressure in Hypertensives, Average Value ± S.D. ([4]; 4 weeks, N 29, P < 0.02 vs before): 143.1 ± 21.1
- Minimum Blood Pressure, Average Value±S.D. [4, 9]: 80.6±10.3
- Maximum Blood Pressure, Average Value±S.D. [4, 9]: 140.0±20.3
- Maximum Blood Pressure in Hypertensives, Average Value ± S.D. ([4]; 6 weeks, N 13, P < 0.05 vs before): 139.2 ± 16.8
- Minimum Blood Pressure, Average Value±S.D. [4, 10]: 79.1±7.0
- Maximum Blood Pressure, Average Value±S.D. [4, 10]: 138.1±15.2
- patients in whom administration was interrupted ([4]; TN 200 mg three times a day, 4 or 6 weeks, P group 3 patients): 2 patients
- Minimum Blood Pressure, Average Value±S.D. [4, 11]: 84.4±13.7
- Maximum Blood Pressure, Average Value±S.D. [4, 11]: 147.6±23.6
- Maximum Blood Pressure in Hypertensives, Average Value ± S.D. ([4]; before administration, same 13 patients as 6 weeks): 151.2 ± 28.9
- Maximum Blood Pressure in Hypertensives, Average Value ± S.D. ([4]; before administration, same 28 patients as 2 weeks): 151.0 ± 22.1
- Maximum Blood Pressure in Hypertensives, Average Value ± S.D. ([4]; before administration, same 29 patients as 4 weeks): 154.6 ± 24.8
- deaths [5]: no deaths
- haematological, haemetobiological and histological surveys [5]: no manifestation of the toxicity was observed
- inhibition of the body weight [5]: inhibition of the body weight was not observed
- variation of GOT, GPT, LDH and ALP ([6]; Table 16): the variation was within the normal region
- GOT, Average Value ([6]; after administration, N 29, S.D. ±9.51): 24.90
- ALP, Average Value ([6]; after administration, N 30, S.D. ±2.21): 7.21
- GPT, Average Value ([6]; after administration, N 30, S.D. ±13.40): 18.73
- LDH, Average Value ([6]; after administration, N 30, S.D. ±53.94): 245.03
- ALP, Average Value ([6]; before administration, N 34, S.D. ±2.36): 7.37
- LDH, Average Value ([6]; before administration, N 36, S.D. ±72.42): 251.28
- GOT, Average Value ([6]; before administration, N 37, S.D. ±14.92): 28.59
- GPT, Average Value ([6]; before administration, N 37, S.D. ±19.46): 22.73
- tendency of reduction of GOT and GPT ([6]; versus P group): greater in the TN administered group than in the P group
- BUN, Average Value ([7]; after administration, N 27, S.D. ±8.48): 14.99
- BUN, Average Value ([7]; before administration, N 31, S.D. ±6.23): 14.74
